Laboratory results taken from the NIST ThermoML archive (doi:10.1021/je4004299).
± gives the expanded uncertainty stated by the source.

Settings: for surface tension liquid-gas: Pendant drop shape; for mass density: 101.33 kPa, Liquid, Vibrating tube method

SMILES | surface tension liquid-gas (298.15 K) [mN/m] | mass density (298.15 K) [kg/m3] | surface tension liquid-gas (303.15 K) [mN/m] | mass density (303.15 K) [kg/m3] | surface tension liquid-gas (313.15 K) [mN/m] | mass density (313.15 K) [kg/m3] | surface tension liquid-gas (323.15 K) [mN/m] | mass density (323.15 K) [kg/m3] | surface tension liquid-gas (333.15 K) [mN/m] | mass density (333.15 K) [kg/m3] | surface tension liquid-gas (343.15 K) [mN/m] | mass density (343.15 K) [kg/m3]
CCCCn1cc[n+](C)c1.O=C([O-])CO [1-butyl-3-methylimidazolium glycolate] | 49.7 ± 0.5 | 1129.32 ± 8 | 49.2 ± 0.5 | 1125.95 ± 8 | 48.4 ± 0.5 | 1118.97 ± 8 | 47.6 ± 0.5 | 1111.78 ± 8 | 46.8 ± 0.5 | 1104.3 ± 8 | 46.1 ± 0.5 | 1097.73 ± 8
CCCCn1cc[n+](C)c1.NCC(=O)[O-] [1-butyl-3-methylimidazolium glycinate] | 54.5 ± 0.6 | 1128.47 ± 8 | 53.6 ± 0.6 | 1125.91 ± 8 | 51.9 ± 0.6 | 1119.35 ± 8 | 50.5 ± 0.5 | 1112.78 ± 8 | 48.4 ± 0.5 | 1107.1 ± 8 | 46.8 ± 0.5 | 1100.5 ± 8
CC(O)C(=O)[O-].CCCCn1cc[n+](C)c1 [1-butyl-3-methylimidazolium lactate] | 42.7 ± 0.5 | 1100.2 ± 8 | 42.3 ± 0.5 | 1096.63 ± 8 | 41.9 ± 0.5 | 1089.79 ± 8 | 41.3 ± 0.5 | 1083.17 ± 8 | 40.6 ± 0.5 | 1076.42 ± 8 | 40 ± 0.5 | 1069.75 ± 8
CCCC[n+]1ccn(C)c1.O=C([O-])c1ccccc1 [3-butyl-1-methylimidazolium benzoate] | 40.1 ± 0.5 | 1105.25 ± 8 | 39.7 ± 0.5 | 1102.19 ± 8 | 39.1 ± 0.4 | 1095.87 ± 8 | 38.7 ± 0.4 | 1089.66 ± 8 | 38.3 ± 0.4 | 1083.46 ± 8 | 37.8 ± 0.4 | 1077.22 ± 8
